This is an account of results in US20050025841A1, “Therapeutic methods using herbal compositions” (priority 2001, published 2005).

The test system of data set [1] is polychromatic erythrocytes in the mouse bone marrow. As to conditions: CTX 30 mg/kg alone; 8000 cells.
The subject of data set [2] is breast cancer. The note with it: women at high risk of breast cancer, versus placebo; cited from earlier work.

As for `O=P1(N(CCCl)CCCl)NCCCO1` (stereo not drawn) [CTX, cyclophosphamide], the “Micronucleus Rate” value in data set [1] worked out at 17.3 ± 1.1 %0. For the molecule `CC/C(=C(\c1ccccc1)c1ccc(OCCN(C)C)cc1)c1ccccc1` [Tamoxifen], in data set [2], the “decrease in invasive cancer” value is 49% and the “decrease in non-invasive breast cancer” value is 50%.
